Laboratory results from paper PMC10244169, “Psychedelics promote plasticity by directly binding to BDNF receptor TrkB” (Nature Neuroscience, 2023).

Legend:
[1] = test system: GFP-tagged TrkA.TM; experiment: Microscale thermophoresis (MST) in HEK293T lysates; type: binding
Experimental: (§1) MST experiments were performed using the Monolith NT.115 (Blue/Red) instrument (NanoTemper Technologies). Lysates of HEK293T cells expressing GFP-tagged TrkB (WT, Y433F, TrkA.TM) were lysed, vortexed, sonicated and centrifuged 24 h after transient transfection and used as a source of fluorescently labeled TrkB, similarly to previously described protocols[11],[45]–[47]. The advantage of this approach is the possibility of studying the proteins in close-to-native conditions. However, the presence of other proteins, lipids, nucleic acids and other components of crude cell lysates can alter the diffusion of biomolecules and therefore binding affinities. High viscosity and background signal typically results in the affinity values being orders of magnitude […] than those of more traditional binding assays. […] The measurements were performed in premium coated capillaries (NanoTemper Technologies, MO-K025) using a LED source with 470 nm and 50% infrared-laser power at 25 °C. Analysis was performed using MO Affinity Analysis 2.3. Results were fitted to specific binding with Hill slope equations from GraphPad Prism 9.2.

[2] = target: T1, GFP-tagged TrkB Y433F (Rattus norvegicus, UniProt Q63604, Y433F); experiment: Microscale thermophoresis (MST) in HEK293T lysates; type: binding
T1 construct: expressed in transfected cells; host or cells: HEK293T
Experimental: as §1

[3] = target: T2, eGFP-tagged TrkB (WT) (Rattus norvegicus, UniProt Q63604); experiment: Microscale thermophoresis (MST) in HEK293T lysates; type: binding
T2 construct: expressed in transfected cells; host or cells: HEK293T
Experimental: as §1

[4] = target: T3, TrkB (WT) dimerization (Rattus norvegicus, UniProt Q63604); experiment: Split-luciferase PCA of TrkB dimerization in N2a cells; type: cell-based; settings: for Group mean (Mean 2; Control:Vehicle = 100), fig 4f: n=8; for Group mean (Mean 2; Vehicle:vehicle = 100), fig 4d: n=20; for TrkB dimerization time course, group mean (time 0 = 100): TRKB.wt; for TrkB dimerization (PCA), group mean (vehicle = 100): WT; for Group mean (Mean 2; Vehicle:Vehicle = 100), fig 4e: n=48
T3 construct: expressed in transfected cells; host or cells: N2a
Outline: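 N2a cells transiently co-transfected with split hGLuc-tagged rat TrkB pairs (WT/WT or Y433F/WT) for dimerization; Ketanserin, M100907 or TRKB.FC added 10 min before treatment. Luminescence read after injection of native coelenterazine ([…] final).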

[5] = test system: mice; experiment: Head-twitch response; type: in vivo, mouse; parameters: key to Mean, figure 7c (head-twitch response) / Mean Diff., figure 7d, Vehicle:Saline vs. Vehicle:LSD / Mean Diff., figure 7d, Vehicle:Saline vs. M100907:Saline / Mean Diff., figure 7d, M100907:Saline vs. M100907:LSD / Mean, figure 7d (head-twitch response) / Mean Diff., figure 7c, WT:Saline vs. WT:LSD / Head-twitch response, Mean: head twitch counts (scored every 2 min over 30 min); settings: for Mean, figure 7c (head-twitch response): LSD group
Experimental: Immediately after the last injection, the animals were placed inside a transparent chamber and their activity video-recorded for 30 min. Similarly to previous studies, head twitches were scored as counts every 2 min by observers blinded to treatments and genotypes.

T3 sequence (Q63604 32-821): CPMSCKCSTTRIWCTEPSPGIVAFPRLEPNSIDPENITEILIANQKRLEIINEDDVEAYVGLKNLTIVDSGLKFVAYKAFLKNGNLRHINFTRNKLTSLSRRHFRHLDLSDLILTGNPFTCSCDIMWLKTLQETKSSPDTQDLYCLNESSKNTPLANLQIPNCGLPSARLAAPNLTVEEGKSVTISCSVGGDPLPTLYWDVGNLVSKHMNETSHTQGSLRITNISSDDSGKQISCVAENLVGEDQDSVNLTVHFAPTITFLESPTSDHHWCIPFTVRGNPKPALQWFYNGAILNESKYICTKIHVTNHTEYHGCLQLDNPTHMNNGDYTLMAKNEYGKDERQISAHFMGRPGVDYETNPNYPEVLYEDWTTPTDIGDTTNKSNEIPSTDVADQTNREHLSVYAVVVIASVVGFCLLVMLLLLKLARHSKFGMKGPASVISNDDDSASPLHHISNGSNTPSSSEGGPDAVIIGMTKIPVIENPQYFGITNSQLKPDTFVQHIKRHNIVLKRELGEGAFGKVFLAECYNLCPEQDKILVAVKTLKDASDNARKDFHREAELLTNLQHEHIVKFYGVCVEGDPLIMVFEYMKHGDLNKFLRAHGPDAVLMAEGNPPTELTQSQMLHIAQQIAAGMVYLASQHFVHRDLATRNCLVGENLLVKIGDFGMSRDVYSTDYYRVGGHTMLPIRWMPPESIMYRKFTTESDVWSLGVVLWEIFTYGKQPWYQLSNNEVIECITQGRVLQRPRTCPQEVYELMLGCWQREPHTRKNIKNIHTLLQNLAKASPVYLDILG
T3 sequence (Q63604 32-821): as above
T2 sequence (Q63604 32-821): as above
T1 sequence (Q63604 32-821 Y433F): as the sequence (Q63604 32-821) above, with Y402F counted along it

Compound: CCN(CC)C(=O)C1C=C2c3cccc4[nH]cc(c34)CC2N(C)C1 (stereo not shown) [LSD, lysergic acid diethylamide]
- Bmax (best-fit, 1c/1d) [1]: ~ 12873
- h (best-fit, 1c/1d) [1]: 1.641
- Bmax (best-fit, 1c/1d) ([2]; MST Y433F): ~ 430.4
- h (best-fit, 1c/1d) ([2]; MST Y433F): 1.157
- binding by MST ([2]; Y433F): but not to Y433F
- h (best-fit, 1c/1d) ([3]; MST WT): 0.8476
- Bmax (best-fit, 1c/1d) ([3]; MST WT, fit ambiguous): ~ 566372
- binding by MST ([3]; native (WT) TrkB): directly bind to native TrkB
- potentiation of BDNF effect on TrkB dimerization ([4]; BDNF 0.1 ng ml^−1): potentiates the effects of very low concentrations of BDNF
- Group mean (Mean 2; Control:Vehicle = 100), fig 4f ([4]; LSD 1nM with BDNF 0.1ng/ml): 198.9
- Group mean (Mean 2; Vehicle:vehicle = 100), fig 4d ([4]; LSD 1 nM with M100907): 146.3
- Group mean (Mean 2; Control:Vehicle = 100), fig 4f ([4]; LSD 1nM, Vehicle (no BDNF)): 131.4
- Group mean (Mean 2; Vehicle:vehicle = 100), fig 4d ([4]; LSD 1 nM, Vehicle (no M100907)): 129.7
- Group mean (Mean 2; Vehicle:vehicle = 100), fig 4d ([4]; LSD 10 nM with M100907): 148
- Group mean (Mean 2; Vehicle:vehicle = 100), fig 4d ([4]; LSD 10 nM, Vehicle (no M100907)): 146.6
- Group mean (Mean 2; Vehicle:vehicle = 100), fig 4d ([4]; LSD 100 nM with M100907): 153.7
- Group mean (Mean 2; Vehicle:vehicle = 100), fig 4d ([4]; LSD 100 nM, Vehicle (no M100907)): 151.3
- Group mean (Mean 2; Vehicle:vehicle = 100), fig 4d ([4]; LSD 1 µM with M100907): 177.5
- Group mean (Mean 2; Vehicle:vehicle = 100), fig 4d ([4]; LSD 1 µM, Vehicle (no M100907)): 148.9
- TrkB dimerization time course, group mean (time 0 = 100) ([4]; time 15): 195
- TrkB dimerization time course, group mean (time 0 = 100) ([4]; time 60): 250.1
- TrkB dimerization time course, group mean (time 0 = 100) ([4]; time 120): 213
- TrkB dimerization time course, group mean (time 0 = 100) ([4]; time 240): 184.6
- TrkB dimerization time course, group mean (time 0 = 100) ([4]; time 480): 101
- TrkB dimerization ([4]; WT TrkB, N2a cells, 1 nM to 1 µM): fast and long-lasting increase in dimerization
- TrkB dimerization (PCA), group mean (vehicle = 100) ([4]; 1nM): 126.2
- TrkB dimerization (PCA), group mean (vehicle = 100) ([4]; 10nM): 166.6
- TrkB dimerization (PCA), group mean (vehicle = 100) ([4]; 100nM): 191.5
- TrkB dimerization (PCA), group mean (vehicle = 100) ([4]; 1uM): 201.7
- Group mean (Mean 2; Vehicle:Vehicle = 100), fig 4e ([4]; treatment alone (other factor Vehicle)): 209.8
- Group mean (Mean 2; Vehicle:Vehicle = 100), fig 4e ([4]; with TrkB.FC): 119.5
- Mean, figure 7d (head-twitch response) ([5]; M100907:LSD group): 0.4
- Mean, figure 7d (head-twitch response) ([5]; Vehicle:LSD group): 33
- Mean, figure 7c (head-twitch response) ([5]; WT mice): 76.8
- Mean Diff., figure 7c, WT:Saline vs. WT:LSD ([5]; WT mice, saline minus LSD, Bonferroni's multiple comparisons test): -73.8
- Mean, figure 7c (head-twitch response) ([5]; Y433F+/- mice): 67.8
- Mean Diff., figure 7c, Y433F+/-:Saline vs. Y433F+/-:LSD ([5]; Y433F+/- mice, saline minus LSD, Bonferroni's multiple comparisons test): -63.2
- head-twitch response ([5]; Y433F^+/− mice treated with LSD 0.1 mg kg^−1): occurs normally
- Head-twitch response, Mean ([5]; ext fig 7c, TrkB.WT mice, Time (min) 2): 2.6
- Head-twitch response, Mean ([5]; ext fig 7c, TrkB.WT mice, Time (min) 4): 6.4
- Head-twitch response, Mean ([5]; ext fig 7c, TrkB.WT mice, Time (min) 6): 10.6
- Head-twitch response, Mean ([5]; ext fig 7c, TrkB.WT mice, Time (min) 8): 7.8
- Head-twitch response, Mean ([5]; ext fig 7c, TrkB.WT mice, Time (min) 10): 6.6
- Head-twitch response, Mean ([5]; ext fig 7c, TrkB.WT mice, Time (min) 12): 7.6
- Head-twitch response, Mean ([5]; ext fig 7c, TrkB.WT mice, Time (min) 14): 5.4
- Head-twitch response, Mean ([5]; ext fig 7c, TrkB.WT mice, Time (min) 16): 4.8
- Head-twitch response, Mean ([5]; ext fig 7c, TrkB.WT mice, Time (min) 18): 3.6
- Head-twitch response, Mean ([5]; ext fig 7c, TrkB.WT mice, Time (min) 20): 4
- Head-twitch response, Mean ([5]; ext fig 7c, TrkB.WT mice, Time (min) 22): 4.6
- Head-twitch response, Mean ([5]; ext fig 7c, TrkB.WT mice, Time (min) 24): 4.8
- Head-twitch response, Mean ([5]; ext fig 7c, TrkB.WT mice, Time (min) 26): 2
- Head-twitch response, Mean ([5]; ext fig 7c, TrkB.WT mice, Time (min) 28): 3.2
- Head-twitch response, Mean ([5]; ext fig 7c, TrkB.WT mice, Time (min) 30): 2.6
- Head-twitch response, Mean ([5]; ext fig 7c, TrkB.Y433F mice, Time (min) 2): 3
- Head-twitch response, Mean ([5]; ext fig 7c, TrkB.Y433F mice, Time (min) 4): 6.2
- Head-twitch response, Mean ([5]; ext fig 7c, TrkB.Y433F mice, Time (min) 6): 9.4
- Head-twitch response, Mean ([5]; ext fig 7c, TrkB.Y433F mice, Time (min) 8): 8.8
- Head-twitch response, Mean ([5]; ext fig 7c, TrkB.Y433F mice, Time (min) 10): 6.8
- Head-twitch response, Mean ([5]; ext fig 7c, TrkB.Y433F mice, Time (min) 12): 6.2
- Head-twitch response, Mean ([5]; ext fig 7c, TrkB.Y433F mice, Time (min) 14): 4.2
- Head-twitch response, Mean ([5]; ext fig 7c, TrkB.Y433F mice, Time (min) 16): 5
- Head-twitch response, Mean ([5]; ext fig 7c, TrkB.Y433F mice, Time (min) 18): 3.2
- Head-twitch response, Mean ([5]; ext fig 7c, TrkB.Y433F mice, Time (min) 20): 2.6
- Head-twitch response, Mean ([5]; ext fig 7c, TrkB.Y433F mice, Time (min) 22): 3
- Head-twitch response, Mean ([5]; ext fig 7c, TrkB.Y433F mice, Time (min) 24): 3.2
- Head-twitch response, Mean ([5]; ext fig 7c, TrkB.Y433F mice, Time (min) 26): 2.2
- Head-twitch response, Mean ([5]; ext fig 7c, TrkB.Y433F mice, Time (min) 28): 1.8
- Head-twitch response, Mean ([5]; ext fig 7c, TrkB.Y433F mice, Time (min) 30): 2.4
- Head-twitch response, Mean ([5]; ext fig 7d, Time (min) 2): 0.2
- Head-twitch response, Mean ([5]; ext fig 7d, Time (min) 4): 2.2
- Head-twitch response, Mean ([5]; ext fig 7d, Time (min) 6): 2.6
- Head-twitch response, Mean ([5]; ext fig 7d, Time (min) 8): 4.2
- Head-twitch response, Mean ([5]; ext fig 7d, Time (min) 10): 3
- Head-twitch response, Mean ([5]; ext fig 7d, Time (min) 12): 3.8
- Head-twitch response, Mean ([5]; ext fig 7d, Time (min) 14): 3.2
- Head-twitch response, Mean ([5]; ext fig 7d, Time (min) 16): 2.2
- Head-twitch response, Mean ([5]; ext fig 7d, Time (min) 18): 2.4
- Head-twitch response, Mean ([5]; ext fig 7d, Time (min) 20): 1.8
- Head-twitch response, Mean ([5]; ext fig 7d, Time (min) 22): 1.2
- Head-twitch response, Mean ([5]; ext fig 7d, Time (min) 24): 2.2
- Head-twitch response, Mean ([5]; ext fig 7d, Time (min) 26): 1.4
- Head-twitch response, Mean ([5]; ext fig 7d, Time (min) 28): 1.8
- Head-twitch response, Mean ([5]; ext fig 7d, Time (min) 30): 0.8
- Mean Diff., figure 7d, Vehicle:Saline vs. Vehicle:LSD ([5]; saline minus LSD, Bonferroni's multiple comparisons test): -30.6
- Mean Diff., figure 7d, M100907:Saline vs. M100907:LSD ([5]; with M100907, saline minus LSD, Bonferroni's multiple comparisons test): -0.2
